According to patent US20060205692A1, “1,1-and 1,2-Bisphosphonates as apoliprotein e modulators” (priority 2002, published 2006):

Test system: ApoE
Assay: apoE secretion by PMA-differentiated THP-1 cells, apoE quantified by ELISA
Assay type: cell-based, human
Conditions: 3 days; for percent change in apoE secretion versus control at 25 µM / percent change in apoE secretion versus control at 50 µM / percent change in apoE secretion versus control at 100 µM: Homo sapiens, THP-1, 72 h
Description: The bisphosphonate compounds of the invention can modulate (increase or decrease) apoE levels in plasma and in tissues. The activities of the compounds can be determined in an in vitro cell assay comprising determining the modulatory effect of the test compound on the secretion of apoE by an apoE secreting cell line (e.g., a monocyte-macrophage cell line such as the THP-1 cell line, a liver derived cell line such as the HepG2 cell line, an intestinal derived cell line such as the CaCo2 cell line or a brain derived cell line such as the astrocytoma CCF-STTG1 cell line).
THP-1 cell line (ATCC TIB-202) are cultured in RPMI 1640 (with 2 mM of L-glutamine and 2 g/l of glucose, Invitrogen) supplemented with 2 g/l of sodium hydrogen carbonate (Fluka), 10 U/ml of penicillin, 10 μg/ml of streptomycin (Penicillin-Streptomycin, Invitrogen), 20 μM of 2-mercaptoethanol (Fluka) and 10% FCS (Amimed). Cells are incubated at 37° C. and 5% CO2.
Cells are seeded in 24 well tissue culture plates (Falcon), 2×10^5 cells in 500 μl of culture medium per well or 6 well plates for RT-PCR purpose, 1×10^6 cells in 2.5 ml of medium. PMA (Phorbol 12-myristate 13-acetate, Alexis), (stock in DMSO (Fluka) at 1 mg/ml) and other compounds are diluted in ethanol and added to the cells at an ethanol final concentration not exceeding 1%. Same volume of ethanol is added in controls. Plates are incubated for 3 days at 37° C. and 5% CO2 to allow cell differentiation and apoE secretion.
Medium contained in the wells is harvested and centrifuged 5 min at 1200 rpm. Supernatants are store at −20° C. until apoE quantification. The cell pellets are resuspended in PBS and counted with a ZI Coulter Counter. After a wash with PBS, adherent cells in the well bottoms are detached with trypsin-EDTA solution 10× (Invitrogen) diluted in PBS. The reaction is stopped with the addition of culture medium and the detached cells are counted.
ApoE was quantified by ELISA. 96 well plates (Costar) are coated with 5% of gelatine (from porcine skin, Fluka) in carbonate-bicarbonate buffer (Sigma) for 1 hour at 37° C. After removing the coating solution, 100 μl of THP-1 supernatant are added per well, diluted 5 times in buffer (PBS, 1% Top-Block (Juro), 0.1% Tween 20 (Fluka)). The incubation last 1 hour at 37° C., then the wells are washed 3 times with 200 μl of buffer. Plates are incubated for 1 hour at 37° C. with continuous stirring with the primary antibody (goat anti-human apoE IgG, Calbiochem) at a 10000-time dilution in buffer, 100 μl per well. After 3 washes, plates are incubated with the secondary antibody (rabbit anti-goat-IgG peroxidase conjugated, Sigma) diluted 5000 times, 100 μl per well, at 37° C. with shaking. Then the wells are washed 5 more times and the detection is achieved by adding 100 μl per well of o-phenylenediamine dihydrochloride (Sigma) and incubated for 15-20 minutes with shaking at room temperature. When the appropriated colour is reached, the reaction is stopped by adding 50 μl per well of 3 M sulfuric acid (Fluka) with shaking for 1 minute at room temperature. The absorbance is read at 492 nm versus 620 nm with a microplate photometer (Anthos Reader 2001).

Row | Structure (SMILES) | % ApoE Change (compound 25 μM, 1.25 nM PMA) [%] | % ApoE Change (compound 25 μM, 2.5 nM PMA) [%] | % ApoE Change (compound 50 μM, 1.25 nM PMA) [%] | % ApoE Change (compound 50 μM, 2.5 nM PMA) [%] | % ApoE Change (compound 100 μM, 1.25 nM PMA) [%] | % ApoE Change (compound 100 μM, 2.5 nM PMA) [%] | percent change in apoE secretion versus control at 25 µM (compound 25 μM, 1.25 nM PMA) [%] | percent change in apoE secretion versus control at 25 µM (compound 25 μM, 2.5 nM PMA) [%] | percent change in apoE secretion versus control at 50 µM (compound 50 μM, 1.25 nM PMA) [%] | percent change in apoE secretion versus control at 50 µM (compound 50 μM, 2.5 nM PMA) [%] | percent change in apoE secretion versus control at 100 µM (compound 100 μM, 2.5 nM PMA) [%] | further results
1 | CCOP(=O)(OCC)C(c1ccc(OC/C=C(\C)CC/C=C(\C)CCC=C(C)C)cc1)P(=O)(OCC)OCC [Tetraethyl 1-[4-(trans, trans-3,7,11-trimethyl-dodeca-2,6,10-trienyloxy)-phenyl]-methylidene-1,1-bisphosphonate] |  |  |  |  |  |  |  |  |  |  |  | % ApoE Change (compound 2.5 μM, 1.25 nM PMA): 14%; % ApoE Change (compound 2.5 μM, 2.5 nM PMA): 27%; % ApoE Change (compound 5.0 μM, 1.25 nM PMA): 46%; % ApoE Change (compound 5.0 μM, 2.5 nM PMA): 47%; % ApoE Change (compound 10 μM, 1.25 nM PMA): 31%; % ApoE Change (compound 10 μM, 2.5 nM PMA): 40%
2 | COP(=O)(OC)C(c1ccc(O)cc1)P(=O)(OC)OC [Tetramethyl 1-(4-hydroxy-phenyl)methylidene-1,1-bisphosphonate] | −7 | −17 | −27 | −25 | −19 | −10 |  |  |  |  |  | 
3 | CCOP(=O)(OCC)C(c1ccc(OCc2ccc(C#N)cc2)cc1)P(=O)(OCC)OCC [Tetraethyl 1-[4-(4-cyano-benzyloxy)-phenyl]-methylidene-1,1-bisphosphonate] | 91 | 134 | 192 | 225 | 447 | 328 |  |  |  |  |  | 
4 | CC(C)OP(=O)(OC(C)C)C(c1ccc(O)cc1)P(=O)(OC(C)C)OC(C)C [Tetraisopropyl 1-(4-hydroxy-phenyl)-methylidene-1,1-bisphosphonate] |  |  |  |  |  |  | 290 | 52 | 399 | 35 | 73 | percent change in apoE secretion versus control at 100 µM (compound 100 μM, 1.25 nM PMA): 488%
5 | CCOP(=O)(OCC)C(c1ccc(OCCN2C(=O)CCC2=O)cc1)P(=O)(OCC)OCC [Tetraethyl 1-[4-(2-N-succinimido-ethoxy)-phenyl]-methylidene-1,1-bisphosphonate] | −51 | 30 | 53 | 70 | 123 | 132 |  |  |  |  |  | 
6 | CCOP(=O)(OCC)C(c1ccc(OCc2ccccn2)cc1)P(=O)(OCC)OCC [Tetraethyl 1-[4-(pyridin-2-yl-methoxy)-phenyl]-methylidene-1,1-bisphosphonate] | 16 | 96 | 146 | 192 | 443 | 574 |  |  |  |  |  | 
7 | CCOP(=O)(OCC)C(c1ccc(OCCN2CCCC2)cc1)P(=O)(OCC)OCC [Tetraethyl 1-[4-(2-N-pyrrolidino-ethoxy)-phenyl]-methylidene-1,1-bisphosphonate] | −5 | 2 | 2 | 7 | 56 | 32 |  |  |  |  |  | 
8 | CCOP(=O)(OCC)C(c1ccc(O)cc1)P(=O)(OCC)OCC [Tetraethyl 1-(4-hydroxy-phenyl)-methylidene-1,1-bisphosphonate] |  |  |  |  |  |  | -13 | -3 | 26 | -9 | 60 | percent change in apoE secretion versus control at 100 µM (compound 100 μM, 1.25 nM PMA): 125%
9 | CCOP(=O)(OCC)C(c1ccc(OCCN(CCC#N)c2ccccc2)cc1)P(=O)(OCC)OCC [Tetraethyl 1-(4-{2-[(2-cyano-ethyl)-phenyl-amino]-ethoxy}-phenyl)-methylidene-1,1-bisphosphonate] |  |  |  |  |  |  | 276 | 209 | 678 | 311 | 499 | 
10 | CCOP(=O)(CC(c1cccc(OCCc2ccccn2)c1)P(=O)(OCC)OCC)OCC (stereo not shown) [Tetraethyl 1-[3-(2-pyridin-2-yl-ethoxy)-phenyl]-ethylidene-1,2-bisphosphonate] |  |  |  |  |  |  | 31 | 110 | 51 | 124 | 206 | percent change in apoE secretion versus control at 100 µM (compound 100 μM, 1.25 nM PMA): 274%
11 | CCOP(=O)(OCC)C(c1ccc(OCCN2CCOCC2)cc1)P(=O)(OCC)OCC [Tetraethyl 1-[4-(2-N-morpholino-ethoxy)-phenyl]-methylidene-1,1-bisphosphonate] | −17 | −20 | −8 | −27 | 43 | −3 |  |  |  |  |  | 
12 | CCOP(=O)(OCC)C(c1ccc(OCCCc2cccnc2)cc1)P(=O)(OCC)OCC [Tetraethyl 1-[4-(3-pyridin-3-yl-propoxy)-phenyl]-methylidene-1,1-bisphosphonate] | 63 | 136 | 103 | 188 | 337 | 331 |  |  |  |  |  | 
13 | CCOP(=O)(CC(c1ccc(OCCN(C)c2ccccn2)cc1)P(=O)(OCC)OCC)OCC (stereo not shown) [Tetraethyl 1-{4-[2-(methyl-pyridin-2-yl-amino)ethoxy]-phenyl}-ethylidene-1,2-bisphosphonate] |  |  |  |  |  |  | 77 | 110 | 202 | 124 | 206 | percent change in apoE secretion versus control at 100 µM (compound 100 μM, 1.25 nM PMA): 569%
14 | CCOc1ccc(C(CP(=O)(OCC)OCC)P(=O)(OCC)OCC)cc1 (stereo not shown) [Tetraethyl 1-(4-ethoxyphenyl)-ethylidene-1,2-bisphosphonate] | −16 | 5 | −12 | 4 | 36 | 54 |  |  |  |  |  | 
15 | CCOP(=O)(CC(c1ccc(OCc2ccccn2)cc1)P(=O)(OCC)OCC)OCC (stereo not shown) [Tetraethyl 1-[4-(pyridin-2-yl-methoxy)-phenyl]-ethylidene-1,2-bisphosphonate] |  | 152 |  | 158 |  | 289 |  |  |  |  |  | 
16 | CCOP(=O)(OCC)C(c1ccc(OCCCN(C)c2ccccn2)cc1)P(=O)(OCC)OCC [Tetraethyl 1-{4-[3-(methyl-pyridin-2-yl-amino)-propoxy]-phenyl}-methylidene-1,1-bisphosphonate] |  |  |  |  |  |  | 375 | 557 |  |  |  | 
17 | CCOP(=O)(OCC)C(c1ccc(OCCCN2C(=O)c3ccccc3C2=O)cc1)P(=O)(OCC)OCC [Tetraethyl 1-[4-(3-N-phthalimido-propoxy)-phenyl]-methylidene-1,1-bisphosphonate] |  |  |  |  |  |  |  | 352 |  | 405 | 482 | 
18 | CCOP(=O)(OCC)C(c1ccc(OCCCO)cc1)P(=O)(OCC)OCC [Tetraethyl 1-[4(3-hydroxy-propoxy)-phenyl]-methylidene-1,1-bisphosphonate] |  |  |  |  |  |  | -27 | -15 | -21 | -16 | 0 | percent change in apoE secretion versus control at 100 µM (compound 100 μM, 1.25 nM PMA): 20%
